Reference: ChEMBL document CHEMBL4145484 (Eur J Med Chem, 2018)

What follows are molecules tested against T1, Amine oxidase [flavin-containing] B (Homo sapiens, UniProt P27338) (assay: Inhibition of recombinant human MAO-B using p-tyramine as substrate preincubated for 15 mins followed by substrate addition measured over 15 mins by Amplex red reagent-based fluorimetric method).
T1 sequence (P27338 whole entry): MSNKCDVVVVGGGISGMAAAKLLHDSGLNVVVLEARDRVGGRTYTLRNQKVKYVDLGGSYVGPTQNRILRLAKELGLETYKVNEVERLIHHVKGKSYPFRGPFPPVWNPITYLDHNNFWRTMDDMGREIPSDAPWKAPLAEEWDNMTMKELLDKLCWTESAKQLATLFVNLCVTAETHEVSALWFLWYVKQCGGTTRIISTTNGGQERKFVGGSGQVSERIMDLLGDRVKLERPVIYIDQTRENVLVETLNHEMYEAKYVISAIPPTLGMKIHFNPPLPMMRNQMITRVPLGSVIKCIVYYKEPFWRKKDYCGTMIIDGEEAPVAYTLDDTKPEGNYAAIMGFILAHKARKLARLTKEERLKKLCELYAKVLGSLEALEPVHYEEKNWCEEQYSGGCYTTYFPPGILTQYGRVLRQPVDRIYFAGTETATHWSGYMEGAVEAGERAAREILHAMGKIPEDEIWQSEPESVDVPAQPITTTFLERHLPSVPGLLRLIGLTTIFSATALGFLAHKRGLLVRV

SMILES	IC50 [µM]
C#CCNC1CCc2c(OCc3ccc(C)cc3)cccc21 (centres undefined)	1.09
C#CCNC1CCc2c(SCc3ccccc3)cccc21 (centres undefined)	6.24
C#CCNC1CCc2c(OCCc3ccc(Cl)cc3)cccc21 (centres undefined)	2.51
C#CCNC1CCc2c(OCc3ccc(F)c(F)c3)cccc21 (centres undefined)	1.41
C#CCNC1CCc2c(OCc3ccc(C(F)(F)F)cc3)cccc21 (centres undefined)	1.39
C#CCNC1CCc2c(OCc3cccc(Cl)c3)cccc21 (centres undefined)	0.33
C#CCNC1CCc2c(OCc3cccc(Br)c3)cccc21 (centres undefined)	0.65
C#CCNC1CCc2c(OCCOc3cccc(NC(=O)CCl)c3)cccc21 (centres undefined)	6.91
C#CCNC1CCc2c(OCc3cccc(F)c3)cccc21 (centres undefined)	0.28
C#CCNC1CCc2c(OCCc3cccc(NC(=O)c4ccc(Cl)cc4)c3)cccc21 (centres undefined)	0.02
C#CCNC1CCc2c(OCc3ccc(F)cc3)cccc21 (centres undefined)	1.87
C#CCNC1CCc2c(OCCCOc3cc(C)c(Cl)c(C)c3)cccc21 (centres undefined)	6.91
C#CCNC1CCc2c(OCCc3cccc(Cl)c3)cccc21 (centres undefined)	5.87
C#CCNC1CCc2c(OCc3cccc(C)c3)cccc21 (centres undefined)	0.55

Next, values leading:

IC50 [µM]	SMILES
4.57	C#CCNC1CCc2c(OCCOc3ccccc3)cccc21 (centres undefined)
18	C#CCNC1CCc2c(OCCCOc3cccc(I)c3)cccc21 (centres undefined)
1.97	C#CCNC1CCc2c(OCc3ccccc3)cccc21 (centres undefined)
3.87	C#CCNC1CCc2c(OCCc3ccccc3)cccc21 (centres undefined)
> 60	C#CCNC1CCc2c(OCCCOc3cccc4ccccc34)cccc21 (centres undefined)
3.39	C#CCNC1CCc2c(OCCOc3cccc4ccccc34)cccc21 (centres undefined)
10.5	C#CCNC1CCc2c(OCCCOc3ccc(CC)cc3)cccc21 (centres undefined)
5.38	C#CCNC1CCc2c(OCCCOc3ccc(C(C)C)cc3)cccc21 (centres undefined)
5.52	C#CCNC1CCc2c(OCCOc3cccc(NC(C)=O)c3)cccc21 (centres undefined)
10.2	C#CCNC1CCc2c(OCCCOc3ccccc3)cccc21 (centres undefined)
6.21	C#CCNC1CCc2c(OCc3ccc4ccccc4c3)cccc21 (centres undefined)

The molecules below were run against T2, Amine oxidase [flavin-containing] A (Homo sapiens, UniProt P21397) (assay: Inhibition of recombinant human MAO-A using p-tyramine as substrate preincubated for 15 mins followed by substrate addition measured over 15 mins by Amplex red reagent-based fluorimetric method).
T2 sequence (P21397 whole entry): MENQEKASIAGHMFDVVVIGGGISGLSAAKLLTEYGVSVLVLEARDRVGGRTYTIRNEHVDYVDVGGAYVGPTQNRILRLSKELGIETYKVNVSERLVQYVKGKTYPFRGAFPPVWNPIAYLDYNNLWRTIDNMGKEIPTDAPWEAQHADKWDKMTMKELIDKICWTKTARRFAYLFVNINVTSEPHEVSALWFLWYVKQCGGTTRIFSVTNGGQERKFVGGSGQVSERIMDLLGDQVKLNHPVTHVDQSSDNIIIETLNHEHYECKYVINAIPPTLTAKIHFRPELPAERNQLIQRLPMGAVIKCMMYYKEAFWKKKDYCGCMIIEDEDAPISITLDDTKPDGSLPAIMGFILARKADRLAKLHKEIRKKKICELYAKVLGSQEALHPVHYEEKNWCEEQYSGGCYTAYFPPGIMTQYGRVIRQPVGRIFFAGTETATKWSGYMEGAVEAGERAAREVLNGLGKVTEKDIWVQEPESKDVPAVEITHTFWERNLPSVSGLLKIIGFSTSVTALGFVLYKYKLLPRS

SMILES	IC50 [µM]
C#CCNC1CCc2c(OCc3ccc(C)cc3)cccc21 (centres undefined)	4.33
C#CCNC1CCc2c(SCc3ccccc3)cccc21 (centres undefined)	> 60
C#CCNC1CCc2c(OCCc3ccc(Cl)cc3)cccc21 (centres undefined)	10.2
C#CCNC1CCc2c(OCc3ccc(F)c(F)c3)cccc21 (centres undefined)	7.22
C#CCNC1CCc2c(OCc3ccc(C(F)(F)F)cc3)cccc21 (centres undefined)	> 60
C#CCNC1CCc2c(OCc3cccc(Cl)c3)cccc21 (centres undefined)	7
C#CCNC1CCc2c(OCc3cccc(Br)c3)cccc21 (centres undefined)	9.55
C#CCNC1CCc2c(OCCOc3cccc(NC(=O)CCl)c3)cccc21 (centres undefined)	> 60
C#CCNC1CCc2c(OCc3cccc(F)c3)cccc21 (centres undefined)	5.2
C#CCNC1CCc2c(OCCc3cccc(NC(=O)c4ccc(Cl)cc4)c3)cccc21 (centres undefined)	9.33
C#CCNC1CCc2c(OCc3ccc(F)cc3)cccc21 (centres undefined)	7.8
C#CCNC1CCc2c(OCCCOc3cc(C)c(Cl)c(C)c3)cccc21 (centres undefined)	> 60
C#CCNC1CCc2c(OCCc3cccc(Cl)c3)cccc21 (centres undefined)	> 60
C#CCNC1CCc2c(OCc3cccc(C)c3)cccc21 (centres undefined)	11.2

The next lines start with the values.

IC50 [µM]	SMILES
14.1	C#CCNC1CCc2c(OCCOc3ccccc3)cccc21 (centres undefined)
> 60	C#CCNC1CCc2c(OCCCOc3cccc(I)c3)cccc21 (centres undefined)
15.4	C#CCNC1CCc2c(OCc3ccccc3)cccc21 (centres undefined)
9.1	C#CCNC1CCc2c(OCCc3ccccc3)cccc21 (centres undefined)
> 60	C#CCNC1CCc2c(OCCCOc3cccc4ccccc34)cccc21 (centres undefined)
> 60	C#CCNC1CCc2c(OCCOc3cccc4ccccc34)cccc21 (centres undefined)
31.4	C#CCNC1CCc2c(OCCCOc3ccc(CC)cc3)cccc21 (centres undefined)
42.7	C#CCNC1CCc2c(OCCCOc3ccc(C(C)C)cc3)cccc21 (centres undefined)
8.3	C#CCNC1CCc2c(OCCOc3cccc(NC(C)=O)c3)cccc21 (centres undefined)
> 60	C#CCNC1CCc2c(OCCCOc3ccccc3)cccc21 (centres undefined)
> 60	C#CCNC1CCc2c(OCc3ccc4ccccc4c3)cccc21 (centres undefined)

Organism: Homo sapiens
Experiment: Selectivity index, ratio of IC50 for recombinant human MAO-A to IC50 for recombinant human MAO-B

SMILES	Ratio IC50
C#CCNC1CCc2c(OCc3ccc(C)cc3)cccc21 (centres undefined)	3.97
C#CCNC1CCc2c(SCc3ccccc3)cccc21 (centres undefined)	> 9.62
C#CCNC1CCc2c(OCCc3ccc(Cl)cc3)cccc21 (centres undefined)	4.07
C#CCNC1CCc2c(OCc3ccc(F)c(F)c3)cccc21 (centres undefined)	5.12
C#CCNC1CCc2c(OCc3ccc(C(F)(F)F)cc3)cccc21 (centres undefined)	> 43.7
C#CCNC1CCc2c(OCc3cccc(Cl)c3)cccc21 (centres undefined)	21.2
C#CCNC1CCc2c(OCc3cccc(Br)c3)cccc21 (centres undefined)	14.7
C#CCNC1CCc2c(OCCOc3cccc(NC(=O)CCl)c3)cccc21 (centres undefined)	> 8.68
C#CCNC1CCc2c(OCc3cccc(F)c3)cccc21 (centres undefined)	18.6
C#CCNC1CCc2c(OCCc3cccc(NC(=O)c4ccc(Cl)cc4)c3)cccc21 (centres undefined)	466
C#CCNC1CCc2c(OCc3ccc(F)cc3)cccc21 (centres undefined)	4.17
C#CCNC1CCc2c(OCCCOc3cc(C)c(Cl)c(C)c3)cccc21 (centres undefined)	> 8.68
C#CCNC1CCc2c(OCCc3cccc(Cl)c3)cccc21 (centres undefined)	> 10.2
C#CCNC1CCc2c(OCc3cccc(C)c3)cccc21 (centres undefined)	20.4

The remaining lines, values ahead:

Ratio IC50	SMILES
3.08	C#CCNC1CCc2c(OCCOc3ccccc3)cccc21 (centres undefined)
> 3.33	C#CCNC1CCc2c(OCCCOc3cccc(I)c3)cccc21 (centres undefined)
7.84	C#CCNC1CCc2c(OCc3ccccc3)cccc21 (centres undefined)
2.35	C#CCNC1CCc2c(OCCc3ccccc3)cccc21 (centres undefined)
> 17.7	C#CCNC1CCc2c(OCCOc3cccc4ccccc34)cccc21 (centres undefined)
2.99	C#CCNC1CCc2c(OCCCOc3ccc(CC)cc3)cccc21 (centres undefined)
7.93	C#CCNC1CCc2c(OCCCOc3ccc(C(C)C)cc3)cccc21 (centres undefined)
1.5	C#CCNC1CCc2c(OCCOc3cccc(NC(C)=O)c3)cccc21 (centres undefined)
> 5.87	C#CCNC1CCc2c(OCCCOc3ccccc3)cccc21 (centres undefined)
> 9.66	C#CCNC1CCc2c(OCc3ccc4ccccc4c3)cccc21 (centres undefined)
